For one assay, the system named is NCI-H460. The assay is described as follows: Cytotoxicity against human NCI-H460 cells. The assay is classed as cell-based.
For a further assay, the system named is MCF7. Briefly: Cytotoxicity against human MCF7 cells. The assay is classed as cell-based.
A further assay concerns SF-268. Briefly: Cytotoxicity against human SF268 cells. The assay is classed as functional, cell-based.

Our source for the IC50 values is ChEMBL document CHEMBL1141371, “Cytotoxic 5-alkylresorcinol metabolites from the leaves of Grevillea robusta” (J Nat Prod, 2007).

Broadly, the IC50 is the point on the concentration scale where inhibition reaches its midpoint.

For `Oc1cc(O)cc(CCCCCCCCCCCCCCc2cc(O)cc(O)c2)c1` [BISNORSTRIATOL], the concentration for half-maximal inhibition (IC50) with NCI-H460 came to 28.8 µM; with MCF7, 29.2 µM; in the assay with SF-268, 29.8 µM.
Consider `Oc1cc(O)c2c(c1)CCCCCCCCCCCCCCc1cc(O)c-2c(O)c1`, for which the values for the IC50 with NCI-H460, in the assay on MCF7 and in the assay on SF-268 were 22.8 µM, 28.6 µM and 27.7 µM, respectively.
Turning to `COc1cc(O)cc2c1-c1c(O)cc(cc1O)CCCCCCC/C=C/CCCCC2`, the IC50 with NCI-H460 turned out to be 27.9 µM; in the assay on MCF7 it was 29.3 µM; in the assay with SF-268 it was 29.1 µM.
`Oc1cc2cc(c1)Oc1c(O)cc(cc1O)[C@H](O)CCCCCCCCCCCCC2`: the IC50 in the assay with NCI-H460 was determined as 27 µM; in the assay on MCF7, 30.6 µM; with SF-268, 32.1 µM.
For `Oc1cc(O)cc(CCCCC/C=C/CCCCCCCc2cc(O)cc(O)c2)c1`, the IC50 in the assay with NCI-H460 came to 27.7 µM; in the assay with MCF7, 28.6 µM; with SF-268 it was 30.6 µM.
In the case of `COc1cc(O)cc(CCCCCCC/C=C/CCCCCc2cc(O)cc(O)c2)c1` [DEHYDROBISGRAVILLOL], the IC50 is 27 µM in the assay with NCI-H460, 29.8 µM with MCF7 and 30.2 µM in the assay with SF-268.
Turning to `COc1cc(O)cc(CCCCCCCCCCCCCCc2cc(O)cc(O)c2)c1` [BISGRAVILLOL], the concentration for half-maximal inhibition (IC50) in the assay with NCI-H460 turned out to be 28.7 µM; in the assay with MCF7 it was 29.4 µM; in the assay on SF-268, 29.4 µM.
Take `COc1cc(O)cc2c1-c1c(O)cc(cc1O)CCCCCCCCCCCCCC2`: the IC50 is 28.9 µM in the assay with NCI-H460, 30.8 µM in the assay on MCF7 and 31.1 µM with SF-268.
Turning to `Oc1cc2cc(c1)Oc1c(O)cc(cc1O)[C@H](O)CCCCCC/C=C/CCCCC2` [DEHYDROGRAVICYCLE], the results for the IC50 in the assay with NCI-H460, in the assay with MCF7 and with SF-268 were 27.9 µM, 30 µM and 31.3 µM, respectively.
As to `Oc1cc2cc(c1)Oc1c(O)cc(cc1O)CCCCCCCCCCCCCC2` [ROBUSTOL], the IC50 in the assay with NCI-H460 was determined as 24 µM; with MCF7, 32.4 µM; in the assay with SF-268, 32.7 µM.
On to `Oc1cc(O)c2c(c1)CCCCC/C=C/CCCCCCCc1cc(O)c-2c(O)c1` [DEHYDROGRAVIPHANE], for which the IC50 with NCI-H460 turned out to be 25.4 µM; in the assay with MCF7 it was 30.7 µM; in the assay on SF-268 it was 33.4 µM.
For `CCCCCCCCCCCCCCCc1cc(O)cc(O)c1` [CARDOL], in that order: 34.2 µM, 37 µM and 39.8 µM.
Consider `Oc1cc2cc(c1)Oc1c(O)cc(cc1O)CCCCCCC/C=C/CCCCC2` [DEHYDROROBUSTOL A], for which the IC50 with NCI-H460 was found to be 28 µM; in the assay on MCF7, 31.8 µM; in the assay on SF-268 it was 33.1 µM.
